Laboratory results from the supplement of paper PMC10307832.

What was measured:
Assay in all cases: relative viability (nuclei count vs DMSO), 5 days (fraction); higher = more cells survive
MK-8033 + Luminespib = compound: Cn1cc(-c2cnc3ccc4ccc(CS(=O)(=O)NCc5ccccn5)cc4c(=O)c3c2)cn1 [MK-8033] + CCNC(=O)c1noc(-c2cc(C(C)C)c(O)cc2O)c1-c1ccc(CN2CCOCC2)cc1 [Luminespib] (partner 0.01 µM)
Summary of the method: (§1)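 Each reported value is a median over duplicate plates. It expresses relative viability: treated-well nuclei count divided by vehicle-well nuclei count. Lung cancer cell lines in 1536-well plates were dosed by pin tool a day after seeding, alone with one drug or with a fixed anchor-drug dose plus five library-drug doses (not always all listed) in √10 steps, and nuclei were counted after 5 days.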

Irinotecan + Foretinib = compound: CCc1c2c(nc3ccc(OC(=O)N4CCC(N5CCCCC5)CC4)cc13)-c1cc3c(c(=O)n1C2)COC(=O)[C@]3(O)CC [Irinotecan] + COc1cc2c(Oc3ccc(NC(=O)C4(C(=O)Nc5ccc(F)cc5)CC4)cc3F)ccnc2cc1OCCCN1CCOCC1 [Foretinib] (partner 0.25 µM)
Summary of the method: as §1

RU-SKI 43 + Foretinib = compound: CC[C@@H](C)CNCC(=O)N1CCC2=C([C@@H]1COC3=CC=CC(=C3)C)C=CS2 [RU-SKI 43] + COc1cc2c(Oc3ccc(NC(=O)C4(C(=O)Nc5ccc(F)cc5)CC4)cc3F)ccnc2cc1OCCCN1CCOCC1 [Foretinib] (partner 0.25 µM)
Summary of the method: as §1

MK-8033 + Bortezomib = compound: Cn1cc(-c2cnc3ccc4ccc(CS(=O)(=O)NCc5ccccn5)cc4c(=O)c3c2)cn1 [MK-8033] + CC(C)C[C@H](NC(=O)[C@H](Cc1ccccc1)NC(=O)c1cnccn1)B(O)O [Bortezomib] (partner 0.002 µM)
Summary of the method: as §1

| Cell Line | relative viability (MK-8033 + Luminespib; first compound 0.02 µM) | relative viability (MK-8033 + Luminespib; first compound 0.06325 µM) | relative viability (MK-8033 + Luminespib; first compound 0.2 µM) | relative viability (MK-8033 + Luminespib; first compound 0.6325 µM) | relative viability (MK-8033 + Luminespib; first compound 2 µM) | relative viability (Irinotecan + Foretinib; first compound 0.6325 µM) | relative viability (Irinotecan + Foretinib; first compound 2 µM) | relative viability (Irinotecan + Foretinib; first compound 6.325 µM) | relative viability (Irinotecan + Foretinib; first compound 20 µM) | relative viability (RU-SKI 43 + Foretinib; first compound 0.1 µM) | relative viability (RU-SKI 43 + Foretinib; first compound 0.3162 µM) | relative viability (RU-SKI 43 + Foretinib; first compound 1 µM) | relative viability (RU-SKI 43 + Foretinib; first compound 3.162 µM) | relative viability (RU-SKI 43 + Foretinib; first compound 10 µM) | relative viability (MK-8033 + Bortezomib; first compound 0.02 µM) | relative viability (MK-8033 + Bortezomib; first compound 0.06325 µM) | relative viability (MK-8033 + Bortezomib; first compound 0.2 µM) | relative viability (MK-8033 + Bortezomib; first compound 0.6325 µM) | relative viability (MK-8033 + Bortezomib; first compound 2 µM) |
| --- | --- | --- | --- | --- | --- | --- | --- | --- | --- | --- | --- | --- | --- | --- | --- | --- | --- | --- | --- |
| NCI-H2342 | 0.774 | 0.643 | 0.805 | 0.631 | 0.651 | 1.17 | 0.928 | 0.826 | 0.525 | 0.967 | 1.09 | 1.01 | 1.06 | 1.02 | – | – | – | – | – |
| NCI-H1299 | – | – | – | – | – | 0.888 | 0.909 | 0.483 | 0.212 | 1.08 | 1.1 | 1.14 | 1.12 | 1.09 | 1.03 | 0.997 | 1.03 | 1.05 | 1 |
| NCI-H1650 | 0.193 | 0.205 | 0.204 | 0.203 | 0.181 | – | 0.956 | 0.432 | 0.446 | 1.05 | 1.22 | 1.24 | 1.02 | 0.887 | 0.198 | 0.181 | 0.197 | 0.234 | 0.218 |
| NCI-H647 | 0.119 | 0.178 | 0.213 | 0.151 | 0.154 | 0.986 | 0.742 | 0.174 | 0.132 | 1.39 | 1.42 | 1.25 | 1.17 | 1.25 | 0.874 | 0.819 | 1.04 | 0.934 | 0.871 |
| NCI-H1944 | 0.742 | 0.62 | 0.708 | 0.719 | 0.653 | 0.655 | 0.351 | 0.198 | 0.18 | 0.812 | 0.878 | 0.918 | 1.01 | 0.819 | – | – | – | – | – |
| NCI-H23 | 0.245 | 0.216 | – | 0.204 | 0.198 | 0.471 | 0.258 | 0.227 | 0.25 | 1.01 | 0.882 | 1.12 | 1.27 | 0.973 | 0.959 | 0.712 | 0.796 | 1.03 | 1.01 |
| NCI-H1792 | 0.383 | 0.34 | 0.442 | 0.217 | 0.273 | – | – | – | – | – | – | – | – | – | 1 | 0.96 | 0.966 | 0.525 | 0.954 |
| HCC-78 | – | – | – | – | – | 0.695 | 0.491 | 0.282 | 0.24 | 0.541 | 0.6 | 0.592 | 0.591 | 0.479 | 0.446 | 0.38 | 0.47 | 0.478 | 0.557 |
| NCI-H358 | 0.417 | 0.236 | 0.235 | 0.296 | 0.213 | 0.563 | 0.476 | 0.195 | 0.134 | 0.631 | 0.749 | 0.829 | 0.776 | 0.489 | – | – | – | – | – |
| NCI-H520 | 0.22 | 0.207 | 0.226 | 0.211 | 0.219 | 0.623 | 0.679 | 0.352 | 0.283 | 0.816 | 0.892 | 0.812 | 0.859 | 0.539 | 0.471 | 0.309 | 0.495 | 0.565 | 0.446 |
| NCI-H1703 | – | – | – | – | – | 0.321 | 0.433 | 0.512 | 0.367 | 0.388 | 0.33 | 0.297 | 0.337 | 0.295 | 0.401 | 0.302 | 0.268 | 0.307 | 0.298 |
| NCI-H1623 | 0.4 | 0.479 | 0.429 | 0.498 | 0.363 | 0.621 | 0.64 | 0.299 | 0.279 | 0.802 | 0.871 | 0.922 | 0.826 | 0.711 | – | – | – | – | – |
| Calu-6 | – | – | – | – | – | 0.605 | 0.429 | 0.168 | 0.087 | 0.958 | 0.976 | 0.973 | 0.859 | 0.724 | 0.959 | 1.03 | 1.04 | 0.955 | 1.01 |
| IA-LM | – | – | – | – | – | 0.951 | 0.62 | 0.148 | 0.117 | 1.25 | 1.28 | 1.49 | 1.18 | 1.13 | 0.791 | 0.746 | 0.83 | 0.782 | 0.802 |
| NCI-H522 | 0.987 | 1.02 | 0.955 | 1.29 | 0.946 | – | – | – | – | – | – | – | – | – | – | – | – | – | – |
| SW 900 | 0.147 | 0.175 | 0.177 | 0.18 | 0.187 | 0.898 | 0.667 | 0.393 | 0.448 | 0.807 | 0.873 | 1.22 | 0.864 | 0.77 | – | – | – | – | – |
| LK-2 | 0.172 | – | 0.265 | 0.187 | 0.26 | 1.25 | 0.329 | 0.305 | 0.283 | 1.28 | 1.13 | 1.27 | 1.46 | 1.05 | – | – | – | – | – |
| NCI-H1793 | 0.174 | 0.217 | 0.161 | 0.209 | 0.162 | – | 0.501 | 0.226 | 0.185 | 0.602 | 0.68 | 0.738 | 0.762 | 0.502 | – | – | – | – | – |
| NCI-H2170 | 0.435 | 0.388 | 0.694 | 0.622 | 0.726 | 1.01 | 0.616 | 0.252 | 0.214 | 0.994 | 1.13 | 1.07 | 1.09 | 0.975 | – | – | – | – | – |
| A549 | – | – | – | – | – | 0.885 | 0.611 | 0.122 | 0.0515 | 1.12 | 1.1 | 1.06 | 0.93 | 0.852 | – | – | – | – | – |
| NCI-H1395 | 0.764 | 0.559 | 0.526 | 0.735 | 0.584 | 0.841 | 0.592 | 0.498 | 0.495 | 0.865 | 0.985 | 1.05 | 1.01 | 1 | – | – | – | – | – |
| HCC-366 | – | – | – | – | – | 0.346 | 0.114 | 0.0566 | 0.0694 | 0.975 | 1.01 | 0.994 | 1.04 | 0.811 | 1.07 | 1 | 0.96 | 1.18 | 1.05 |
